Measured values reported in patent US5747235A, “Silver halide light sensitive emulsion layer having enhanced photographic sensitivity” (Eastman Kodak Company, priority 1996, dated 1998).
Where a name gives a salt, the structure may show the parent alone.

How the values were obtained:
[1] = Example 7: photographic speed and fog with/without HB3, 365 nm exposure, emulsion T-2
Protocol: (§1) For photographic evaluation, each of the coating strips was exposed for 0.1 sec to a 365 nm emission line of a Hg lamp filtered through a Kodak Wratten filter number 18A and a step wedge ranging in density from 0 to 4 density units in 0.2 density steps. The exposed film strips were developed for 6 min in Kodak Rapid X-ray Developer (KRX). S365, relative sensitivity at 365 nm, was evaluated at a density of 0.2 units above fog.
An AgBrI tabular silver halide emulsion (Emulsion T-2) was prepared containing 4.05% total I distributed such that the central portion of the emulsion grains contained 1.5% I and the perimeter area contained substantially higher I, as described by Chang et. al., U.S. Pat. No. 5,314,793. […] This emulsion was precipitated using deionized gelatin. The emulsion was sulfur sensitized by adding 8.5×10^-6 mole 1,3-dicarboxymethyl-1,3-dimethyl-2-thiourea /mole Ag at 40° C.; the temperature was then raised to 60° C. at a rate of 5° C./3 min and the emulsions held for 20 min before cooling to 40° C. The chemically sensitized emulsion was then used to prepare coatings containing the fragmentable two-electron donor compounds. […] Where present, the blue sensitizing dye D-I or the red sensitizing dye D-II were added from methanol solution to the emulsion at 40° C. after the chemical sensitization and disulfocatechol addition. The fragmentable two-electron donor compounds were added to the emulsion at 40° C. and the coatings were prepared and tested as described in Example 1, except that the additional gelatin used to prepare the coatings described in Table III was deionized gelatin.
Where present the blue sensitizing dye D-I or the red sensitizing dye D-II were added from methanol solution to the emulsion at 40° C. after the chemical sensitization and disulfocatechol addition. The fragmentable two-electron donating compounds were then added to the emulsion and coatings prepared as described in Example 1, except that the additional gelatin used to prepare the coatings described in Table VII was deionized gelatin. The coatings were tested for their response to a 365 nm exposure as described in Example 1.

[2] = Example 8: photographic speed and fog, 365 nm exposure, cubic emulsion C-1; parameters: Fog: unit not given here; details: for sensitivity increase: both undyed cubic emulsions (C-1 and C-2)
Protocol: as §1
Two cubic emulsions with uniform halide composition were precipitated using deionized gelatin. Emulsion C-1 was a AgErI emulsion with a 3% I content and a cubic edge length of 0.47 μm and emulsion C-2 was an AgBr emulsion with a cubic edge length of 0.52 μm. The emulsions were sulfur sensitized by adding 1,3-dicarboxymethyl-1,3-dimethyl-2-thiourea at 40° C.; the temperature was then raised to 60° C. at a rate of 5° C./3 min and the emulsions held for 20 min before cooling to 40° C. The amounts of the sulfur sensitizing compound used were 1.0×10^-5 mole/mole Ag for emulsion C-1, and 6.0×10^-6mole/mole Ag for emulsion C-2. These experimental coating variations contained the hydroxybenzene, 2,4-disulfocatechcol (HB3) at a concentration of 13 mmole/mole Ag, added to the melt before the addition of any further compounds. Some of the variations were then dyed with the sensitizing dye D-II, added from methanol solution. The fragmentable electron donor compounds were then added to the emulsion melts at 40° C. and coatings were prepared and tested as described in Example 1 except that the additional gelatin used to prepare the coatings described in Table VIII was deionized gelatin. Also, the dyed coatings were tested for their response to a spectral exposure as described in Example 3.

[3] = Example 6: photographic speed and fog, 365 nm exposure, emulsion T-2; details: for effect on dye desensitization: red dyed emulsion (D-II), 365 nm
Protocol: as §1
An AgBrI tabular silver halide emulsion (Emulsion T-2) was prepared containing 4.05% total I distributed such that the central portion of the emulsion grains contained 1.5% I and the perimeter area contained substantially higher I, as described by Chang et. al., U.S. Pat. No. 5,314,793. […] This emulsion was precipitated using deionized gelatin. The emulsion was sulfur sensitized by adding 8.5×10^-6 mole 1,3-dicarboxymethyl-1,3-dimethyl-2-thiourea /mole Ag at 40° C.; the temperature was then raised to 60° C. at a rate of 5° C./3 min and the emulsions held for 20 min before cooling to 40° C. The chemically sensitized emulsion was then used to prepare coatings containing the fragmentable two-electron donor compounds. All of the experimental coating variations in Table III contained the hydroxybenzene 2,4-disulfocatechol (HB3) at a concentration of 13 mmole/ mole Ag, added to the melt before the addition of any further addenda. Where present, the blue sensitizing dye D-I or the red sensitizing dye D-II were added from methanol solution to the emulsion at 40° C. after the chemical sensitization and disulfocatechol addition. The fragmentable two-electron donor compounds were added to the emulsion at 40° C. and the coatings were prepared and tested as described in Example 1, except that the additional gelatin used to prepare the coatings described in Table III was deionized gelatin.
The chemically sensitized AgErI tabular emulsion T-2 as described in Example 3 was used to prepare the experimental coating variations listed in Table VI, comparing fragmentable electron donating compounds PMT-1 and PMT-2 that contain a phenylmercaptotetrazole as the silver halide adsorbing group. For some of the experimental variations listed in Table VI the red sensitizing dye D-II was added from methanol solution to the emulsion at 40° C. after the chemical sensitization. The fragmentable electron donating compounds were then added to the emulsion and coatings prepared and tested for sensitivity at 365 nm and for spectral sensitivity as described in Example 3.

[4] = 0.007 x10^-3 mole/mole Ag, HB3 0, dye II 0.86 x10^-3
[5] = 0.007 x10^-3 mole/mole Ag, HB3 13 x10^-3, dye II 0.86 x10^-3
[6] = 0.007 x10^-3 mole/mole Ag, HB3 13 x10^-3, dye II 0.86 x10^-3, dyed control 68
[7] = 0.07 x10^-3 mole/mole Ag, HB3 0, dye I 0.91 x10^-3
[8] = 0.07 x10^-3 mole/mole Ag, HB3 0, no dye
[9] = 0.07 x10^-3 mole/mole Ag, HB3 0, no dye, control=100
[10] = 0.07 x10^-3 mole/mole Ag, HB3 13 x10^-3, dye I 0.91 x10^-3
[11] = 0.07 x10^-3 mole/mole Ag, HB3 13 x10^-3, dye I 0.91 x10^-3, dyed control 105
[12] = 0.07 x10^-3 mole/mole Ag, HB3 13 x10^-3, no dye
[13] = 0.07 x10^-3 mole/mole Ag, HB3 13 x10^-3, no dye, control=100
[14] = 0.16 x10^-3 mol/mol Ag, no dye, control=100

**Q.** For CCSCCN(c1ccc(C)cc1)C(CC(=O)O)C(=O)O (centres unmarked) [Compound S-8], which Fog [1, 4] is on record?
**A.** Its Fog is 0.21.

**Q.** What about the S365 [1, 4] of the same compound?
**A.** Its S365 is 110.

**Q.** What about the Fog [1, 5] of the same compound?
**A.** Its Fog is 0.15.

**Q.** And the S365 [1, 6]?
**A.** The S365 was 112.

**Q.** What about the Fog [1, 7] of the same compound?
**A.** The Fog was 0.12.

**Q.** And the S365 [1, 7]?
**A.** The S365 was 155.

**Q.** What about the Fog [1, 8] of the same compound?
**A.** Its Fog is 0.16.

**Q.** And the S365 [1, 9]?
**A.** The S365 was 159.

**Q.** And the Fog [1, 10]?
**A.** Its Fog is 0.12.

**Q.** And the S365 [1, 11]?
**A.** The S365 was 120.

**Q.** And the Fog [1, 12]?
**A.** The Fog was 0.13.

**Q.** And the S365 [1, 13]?
**A.** The S365 was 162.

**Q.** Which results are given for CCSCCN(c1ccccc1)C(C)C(=O)O (centres unmarked) [Compound S-9, N-(Phenyl)-N-(2-thioethyl-ethyl)alanine sodium salt]?
**A.** Fog ([2]; 0.005 x10^-3 mol/mol Ag, dye II 0.44 x10^-3): 0.18; S365 ([2]; 0.005 x10^-3 mol/mol Ag, dye II 0.44 x10^-3, dyed control 105): 162; Fog ([2]; 0.016 x10^-3 mol/mol Ag, dye II 0.44 x10^-3): 0.21; S365 ([2]; 0.016 x10^-3 mol/mol Ag, dye II 0.44 x10^-3, dyed control 105): 191; Fog ([2]; 0.05 x10^-3 mol/mol Ag, no dye): 0.07; S365 ([2]; 0.05 x10^-3 mol/mol Ag, no dye, control=100): 229; Fog ([2]; 0.16 x10^-3 mol/mol Ag, no dye): 0.07; S365 [2, 14]: 234; sensitivity increase [2]: approximately a factor of two; Fog ([1]; 0.0022 x10^-3 mole/mole Ag, HB3 13 x10^-3, dye II 0.86 x10^-3): 0.24; S365 ([1]; 0.0022 x10^-3 mole/mole Ag, HB3 13 x10^-3, dye II 0.86 x10^-3, dyed control 68): 115; Fog [1, 4]: 0.77; Fog [1, 5]: 0.44; S365 [1, 6]: 107; Fog [1, 7]: 0.19; S365 [1, 7]: 159; Fog [1, 8]: 0.21; S365 [1, 9]: 170; Fog [1, 10]: 0.13; S365 [1, 11]: 162; Fog [1, 12]: 0.13; S365 [1, 13]: 166

**Q.** With CCSCCN(c1ccc(C(=O)O)cc1)C(C)C(=O)O (centres unmarked) [Compound S-11] as the compound, how does the Fog ([2]; 0.05 x10^-3 mol/mol Ag, dye II 0.44 x10^-3) read?
**A.** The Fog was 0.14.

**Q.** What about the S365 ([2]; 0.05 x10^-3 mol/mol Ag, dye II 0.44 x10^-3, dyed control 105) of the same compound?
**A.** The S365 was 162.

**Q.** And the Fog ([2]; 0.16 x10^-3 mol/mol Ag, dye II 0.44 x10^-3)?
**A.** Its Fog is 0.16.

**Q.** And the S365 ([2]; 0.16 x10^-3 mol/mol Ag, dye II 0.44 x10^-3, dyed control 105)?
**A.** Its S365 is 186.

**Q.** What about the Fog ([2]; 0.16 x10^-3 mol/mol Ag, no dye) of the same compound?
**A.** Its Fog is 0.07.

**Q.** What about the S365 [2, 14] of the same compound?
**A.** Its S365 is 219.

**Q.** What about the Fog ([2]; 0.50 x10^-3 mol/mol Ag, no dye) of the same compound?
**A.** The Fog was 0.07.

**Q.** What about the S365 ([2]; 0.50 x10^-3 mol/mol Ag, no dye, control=100) of the same compound?
**A.** Its S365 is 234.

**Q.** What about the “sensitivity increase” value [2] of the same compound?
**A.** The value was “approximately a factor of two”.

**Q.** For Cc1ccc(N(CCC(=O)Nc2cccc(-n3nnnc3S)c2)C(C)C(=O)O)cc1 (centres unmarked) [PMT-1], which Fog ([3]; 0.0006 x10^-3 mole/mole Ag, dye II 0.86 x10^-3) is on record?
**A.** Its Fog is 0.14.

**Q.** And the S365 ([3]; 0.0006 x10^-3 mole/mole Ag, dye II 0.86 x10^-3, dyed control 73)?
**A.** The S365 was 97.

**Q.** And the Fog ([3]; 0.0017 x10^-3 mole/mole Ag, dye II 0.86 x10^-3)?
**A.** Its Fog is 0.27.

**Q.** And the S365 ([3]; 0.0017 x10^-3 mole/mole Ag, dye II 0.86 x10^-3, dyed control 73)?
**A.** The S365 was 115.

**Q.** And the Fog ([3]; 0.0055 x10^-3 mole/mole Ag, dye II 0.86 x10^-3)?
**A.** The Fog was 0.53.

**Q.** What about the S365 ([3]; 0.0055 x10^-3 mole/mole Ag, dye II 0.86 x10^-3, dyed control 73) of the same compound?
**A.** The S365 was 102.

**Q.** What about the Fog ([3]; 0.006 x10^-3 mole/mole Ag, no dye) of the same compound?
**A.** Its Fog is 0.08.

**Q.** And the S365 ([3]; 0.006 x10^-3 mole/mole Ag, no dye, control=100)?
**A.** The S365 was 195.

**Q.** What about the Fog ([3]; 0.017 x10^-3 mole/mole Ag, no dye) of the same compound?
**A.** Its Fog is 0.13.

**Q.** And the S365 ([3]; 0.017 x10^-3 mole/mole Ag, no dye, control=100)?
**A.** The S365 was 191.

**Q.** What about the “effect on dye desensitization” value [3] of the same compound?
**A.** Its value is “effective in ameliorating dye desensitization”.

**Q.** With CC(C(=O)O)N(CCC(=O)Nc1cccc(-n2nnnc2S)c1)c1ccccc1 (centres unmarked) [PMT-2] as the compound, how does the Fog ([3]; 0.0005 x10^-3 mole/mole Ag, dye II 0.86 x10^-3) read?
**A.** Its Fog is 0.13.

**Q.** And the S365 ([3]; 0.0005 x10^-3 mole/mole Ag, dye II 0.86 x10^-3, dyed control 73)?
**A.** Its S365 is 102.

**Q.** And the Fog ([3]; 0.0016 x10^-3 mole/mole Ag, dye II 0.86 x10^-3)?
**A.** The Fog was 0.23.

**Q.** What about the S365 ([3]; 0.0016 x10^-3 mole/mole Ag, dye II 0.86 x10^-3, dyed control 73) of the same compound?
**A.** The S365 was 118.

**Q.** What about the Fog ([3]; 0.005 x10^-3 mole/mole Ag, dye II 0.86 x10^-3) of the same compound?
**A.** The Fog was 0.40.

**Q.** What about the S365 ([3]; 0.005 x10^-3 mole/mole Ag, dye II 0.86 x10^-3, dyed control 73) of the same compound?
**A.** The S365 was 118.

**Q.** And the Fog ([3]; 0.005 x10^-3 mole/mole Ag, no dye)?
**A.** Its Fog is 0.06.

**Q.** And the S365 ([3]; 0.005 x10^-3 mole/mole Ag, no dye, control=100)?
**A.** Its S365 is 191.

**Q.** What about the Fog ([3]; 0.016 x10^-3 mole/mole Ag, no dye) of the same compound?
**A.** The Fog was 0.08.

**Q.** And the S365 ([3]; 0.016 x10^-3 mole/mole Ag, no dye, control=100)?
**A.** The S365 was 186.

**Q.** What about the “effect on dye desensitization” value [3] of the same compound?
**A.** The value was “effective in ameliorating dye desensitization”.
